# From patent publication US8735417B2, “Aminopyrimidines as Syk inhibitors” (Merck Sharp & Dohme Corp., priority 2009, dated 2014)
# Target: T1, recombinant human GST-SYK (Homo sapiens, UniProt P43405)
# T1 construct: purchased Carna Biosciences 08-176
# Test: Homogeneous Time-Resolved Fluorescence (HTRF) assay for the recombinant human SYK enzyme
# Assay type: biochemical
# Conditions: recombinant human GST-SYK 5 pM, ATP 25 μM, 10-dose titration; read-out: rhSYK Activity (IC50)
# Protocol: Homogeneous Time-Resolved Fluorescence (HTRF) Assay for the Recombinant Human SYK Enzyme:
# A recombinant GST-hSYK fusion protein was used to measure potency of compounds to inhibit human SYK activity. The recombinant human GST-SYK (Carna Biosciences #08-176) (5 pM final concentration) was incubated with various concentrations of the inhibitor diluted in DMSO (0.1% final concentration) for 10 minutes at room temperature in 15 mM Tris-HCl (pH 7.5), 0.01% tween 20, 2 mM DTT in 384 well plate format. To initiate the reaction the biotinylated substrate peptide (250 nM final concentration) that contains the phosphorylation site for SYK was added with magnesium (5 mM final concentration) and ATP (25 μM final concentration). Final volume of the reaction was 10 μL. Phosphorylation of the peptide was allowed to proceed for 45′ at room temperature. To quench the reaction and detect the phosphorylated product, 2 nM of a Europium-atiti-phosphotyrosine antibody (Perkin Elmer #AD0161) and 70 nM SA-APC (Perkin-Elmer #CR130-100) were added together in 15 mM Tris pH 7.5, 40 mM EDTA, 0.01% tween 20. Final volume of the quenching solution was 10 μL. The resulting HTRF signal was measured after 30 minutes on a EnVision (Perkin-Elmer) reader using a time-resolved fluorescence protocol.
row,Structure (SMILES),IC50 [nM]
1,CN(CC(O)c1ccccc1)c1ncc(-c2cccc(Nc3nccc(C(F)(F)F)n3)c2)s1 (stereo not shown) [Example 7],≤ 100
2,Cc1cc(Nc2nccc(C(F)(F)F)n2)cc(-c2cnc(N3CC4CNC(CO)C4C3)s2)c1 (stereo not shown) [Example 165],≤ 100
3,Cc1cc(Nc2nccc(C(F)(F)F)n2)cc(-c2cnc(NCc3cn(C)cn3)s2)c1 [Example 94],≤ 100
4,"OCCN(CCO)c1ncc(-c2cc(Nc3nccc(C(F)(F)F)n3)cc(N3CCOCC3)c2)s1 [Example 194, 2,2′-({5-[3-(morphpholin-4-yl)-5-{[4-(trifluoromethyl)pyrimidin-2-yl]amino}phenyl]-1,3-thiazol-2-yl}imino)diethanol]",≤ 100
5,Cc1cc(Nc2nccc(C(F)(F)F)n2)cc(-c2cnc(NC(C)c3cccnc3)s2)c1 (stereo not shown) [Example 99],≤ 100
6,Cc1cc(Nc2nccc(C(F)(F)F)n2)cc(-c2cnc(NCCc3nccs3)s2)c1 [Example 109],≤ 100
7,Cc1cc(Nc2nccc(C(F)(F)F)n2)cc(-c2cnc(NCc3cc(C)n(C)n3)s2)c1 [Example 88],≤ 100
8,Cc1cc(C)n(CCNc2ncc(-c3cccc(Nc4nccc(C(F)(F)F)n4)c3)s2)n1 [Example 63],100 to 1000
9,Cc1cc(Nc2nccc(C(F)(F)F)n2)cc(-c2cnc(NCc3cc(C)on3)s2)c1 [Example 97],≤ 100
10,Cc1cc(Nc2nccc(C(F)(F)F)n2)cc(-c2cnc(N3CCn4ccnc4C3)s2)c1 [Example 173],≤ 100
11,CC(Nc1ncc(-c2cccc(Nc3nccc(C(F)(F)F)n3)c2)s1)c1ccccc1 (stereo not shown) [Example 55],100 to 1000
12,Cc1cc(CNc2ncc(-c3cccc(Nc4nccc(C(F)(F)F)n4)c3)s2)n(C)n1 [Example 69],≤ 100
13,Cc1cc(Nc2nccc(C(F)(F)F)n2)cc(-c2cnc(NCCc3cscn3)s2)c1 [Example 110],≤ 100
14,CN(CCO)c1ncc(-c2cc(N)cc(Nc3nccc(C(F)(F)F)n3)c2)s1 [Example 189],≤ 100
15,Cc1cc(Nc2nccc(OC3CCOC3)n2)cc(-c2cnc(N3CCCNC(=O)C3)s2)c1 (stereo not shown) [Example 214],≤ 100
16,Cc1cc(Nc2nccc(C(F)(F)F)n2)cc(-c2cnc(NCC(O)C(F)F)s2)c1 (stereo not shown) [Example 95],≤ 100
17,Cc1cc(Nc2nccc(OCCO)n2)cc(-c2cnc(N3CCCNC(=O)C3)s2)c1 [Example 218],≤ 100
18,FC(F)(F)c1ccnc(Nc2cccc(-c3cnc(NCc4c[nH]nc4-c4ccccc4)s3)c2)n1 [Example 78],100 to 1000
19,CCC(CO)Nc1ncc(-c2cc(C)cc(Nc3nccc(C(F)(F)F)n3)c2)s1 (stereo not shown) [Example 84],≤ 100
20,Cc1cc(Nc2nccc(C(F)(F)F)n2)cc(-c2cnc(NCc3cnsn3)s2)c1 [Example 105],≤ 100
21,"Cc1cc(Nc2nccc(C3CCCCC3)n2)cc(-c2cnc(N3CCCNC(=O)C3)s2)c1 [Example 196, 4-(5-{3-[(4-cyclohexylpyrimidin-2-yl)amino]-5-methylphenyl}-1,3-thiazol-2-yl)-1,4-diazepan-2-one]",≤ 100
22,Cc1cc(Nc2nccc(C(F)(F)F)n2)cc(-c2cnc(N3CCn4cncc4C3)s2)c1 [Example 174],≤ 100

# The next lines start with the values.
row,IC50 [nM],Structure (SMILES)
1,100 to 1000,"Cc1ccnc(Nc2cccc(-c3csc(N4CCC(C(=O)O)CC4)n3)c2)n1 [Example 231, 1-(4-{3-[(4-methylpyrimidin-2-yl)amino]phenyl}-1,3-thiazol-2-yl)piperidine-4-carboxylic acid]"
2,≤ 100,FC(F)(F)c1ccnc(Nc2cccc(-c3cnc(N4CCCNCC4)s3)c2)n1 [Example 167]
3,≤ 100,OCCN(CCO)c1ncc(-c2cccc(Nc3nccc(C(F)(F)F)n3)c2)s1 [Example 3]
4,1000 to 10000,OCCC1(c2ccc(Cl)cc2)CCN(c2ncc(-c3cccc(Nc4nccc(C(F)(F)F)n4)c3)s2)C1 (stereo not shown) [Example 160]
5,≤ 100,CC(=O)NCCC1CCN(c2ncc(-c3cc(C)cc(Nc4nccc(C(F)(F)F)n4)c3)s2)CC1 [Example 150]
6,≤ 100,CC(=O)N1CCCN(c2ncc(-c3cccc(Nc4nccc(C(F)(F)F)n4)c3)s2)CC1 [Example 169]
7,≤ 100,OCCCCNc1ncc(-c2cccc(Nc3nccc(C(F)(F)F)n3)c2)s1 [Example 18]
8,100 to 1000,"NC(=O)C1CCN(c2nc(-c3cccc(Nc4nccc(C(F)(F)F)n4)c3)cs2)CC1 [Example 230, 1-[4-(3-{[4-(trifluoromethyl)pyrimidin-2-yl]amino}phenyl)-1,3-thiazol-2-yl]piperidine-4-carboxamide]"
9,≤ 100,CCC(O)CNc1ncc(-c2cccc(Nc3nccc(C(F)(F)F)n3)c2)s1 (stereo not shown) [Example 9]
10,≤ 100,CC1C(=O)NCCN1c1ncc(-c2cccc(Nc3nccc(C(F)(F)F)n3)c2)s1 (stereo not shown) [Example 124]
11,≤ 100,OCCCNc1ncc(-c2cccc(Nc3nccc(C(F)(F)F)n3)c2)s1 [Example 15]
12,≤ 100,OCC1CCCN(c2ncc(-c3cccc(Nc4nccc(C(F)(F)F)n4)c3)s2)C1 (stereo not shown) [Example 134]
13,≤ 100,CC1(O)CN(c2ncc(-c3cccc(Nc4nccc(C(F)(F)F)n4)c3)s2)C1 [Example 154]
14,≤ 100,CSCCNc1ncc(-c2cccc(Nc3nccc(C(F)(F)F)n3)c2)s1 [Example 44]
15,≤ 100,FC(F)(F)c1ccnc(Nc2cccc(-c3cnc(-n4ccnc4)s3)c2)n1 [Example 178]
16,100 to 1000,"O=C(O)C1CCN(c2nc(-c3cccc(Nc4nccc(C(F)(F)F)n4)c3)cs2)CC1 [Example 229, 1-[4-(3-{[4-(trifluoromethyl)pyrimidin-2-yl]amino}phenyl)-1,3-thiazol-2-yl]piperidine-4-carboxylic acid]"
17,≤ 100,CCC(C)Nc1ncc(-c2cccc(Nc3nccc(C(F)(F)F)n3)c2)s1 (stereo not shown) [Example 42]
18,≤ 100,"O=C(CO)Nc1ncc(-c2cccc(Nc3nccc(C(F)(F)F)n3)c2)s1 [Example 183, 2-hydroxy-N-[5-(3-{[4-(trifluoromethyl)pyrimidin-2-yl]amino}phenyl)-1,3-thiazol-2-yl]acetamide]"
19,≤ 100,FC(F)(F)c1ccnc(Nc2cccc(-c3cnc(NCc4cncnc4)s3)c2)n1 [Example 31]
20,≤ 100,FC(F)(F)c1ccnc(Nc2cccc(-c3cnc(NCC4CCOCC4)s3)c2)n1 [Example 61]
21,≤ 100,OC1CCCN(c2ncc(-c3cccc(Nc4nccc(C(F)(F)F)n4)c3)s2)C1 (stereo not shown) [Example 131]
22,1000 to 10000,Cc1cc(Nc2nccc(C(F)(F)F)n2)cc(-c2cnc(N3CCC(c4ccc(S(C)(=O)=O)cc4)CC3)s2)c1 [Example 146]
23,≤ 100,FC(F)CNc1ncc(-c2cccc(Nc3nccc(C(F)(F)F)n3)c2)s1 [Example 38]
24,≤ 100,COCCNc1ncc(-c2cccc(Nc3nccc(C(F)(F)F)n3)c2)s1 [Example 5]
25,≤ 100,OCCOCCNc1ncc(-c2cccc(Nc3nccc(C(F)(F)F)n3)c2)s1 [Example 72]
26,100 to 1000,OC1(C(F)(F)F)CN(c2ncc(-c3cccc(Nc4nccc(C(F)(F)F)n4)c3)s2)C1 [Example 155]
27,1000 to 10000,CC(C)(C)OC(=O)NCC1CCN(c2ncc(-c3cccc(Nc4nccc(C(F)(F)F)n4)c3)s2)CC1 [Example 138]
28,≤ 100,N[C@H]1CCN(c2ncc(-c3cccc(Nc4nccc(C(F)(F)F)n4)c3)s2)C1 [Example 163]
29,≤ 100,CSCCC(CO)Nc1ncc(-c2cccc(Nc3nccc(C(F)(F)F)n3)c2)s1 (stereo not shown) [Example 80]
30,≤ 100,Cc1cc(CNc2ncc(-c3cccc(Nc4nccc(C(F)(F)F)n4)c3)s2)no1 [Example 83]
